Test results: PubChem BioAssay AID493181 (Southern Research Specialized Biocontainment Screening …, 2011)
The source made the active and inactive calls. The rule behind the calls is not given here. Where a SMILES comes first, the peptide text is derived from it. The star is where a group is joined. Cbz = O=C(OCc1ccccc1)*

Key:
[1] = tested on: M. tuberculosis H37Rv growth inhibition, no glycerol; assay: M. tuberculosis growth inhibition, confirmation, H37Rv, purified and synthesized compounds (AID 493181); conditions: for IC90: 90% growth inhibition concentration
[2] = as above; conditions: M. tuberculosis H37Rv growth inhibition, no glycerol; at 100 µM (top of the series)

Row | Structure (SMILES) | IC50 [1] [µM] | IC90 [1] [µM] | inhibition [2]
1 | CCOC(=O)CNC(=O)[C@H](Cc1ccccc1)NC(=O)OCc1ccccc1 (Cbz-Phe-Gly-OEt) | 1.41 | 2.11 | –
2 | O=C(/C=C\c1cccs1)N1CCN(Cc2ccc3c(c2)OCO3)CC1 | < 0.2 | 2.78 | –
3 | S=c1nc[nH]c2nc[nH]c12 | 1.5 | 1.65 | –
4 | COc1cc(NC(=O)C/C(C)=N/NC(=O)c2ccccn2)c(OC)cc1Cl | 3.69 | 8.34 | –
5 | O=C(CSc1nc2ccccc2c(=O)[nH]1)NC1CCCCC1 | < 0.2 | < 0.2 | –
6 | Cc1nn2c(NCc3ccccn3)cc(C(C)C)nc2c1-c1ccccc1 | 1.48 | 2.67 | –
7 | CCOC(=O)c1ccc(NC(=O)Cn2ncc(Cl)c(Cl)c2=O)cc1 | < 0.2 | 1.55 | –
8 | CCC(C)Nc1ccc(NC(C)CC)cc1 (centres undefined) | 1.1 | 1.5 | –
9 | O=C(NCC(c1cccs1)N1CCOCC1)c1cc([N+](=O)[O-])cc([N+](=O)[O-])c1 (centres undefined) | < 0.2 | 0.78 | –
10 | CCOC(=O)COn1c2c(c3c4no[n+]([O-])c4ccc31)CCCC2 | 2.14 | 3.78 | –
11 | Cc1ccc2c(c1)c(C1=c3ccccc3=NC1=O)c(O)n2C | 0.84 | 1.47 | –
12 | CCOC(=O)C(C)Sc1ncnc2c1nnn2-c1ccc(F)cc1 (centres undefined) | 1.38 | 3.38 | –
13 | O=C(/C=C/c1ccccc1)N1CCN(CCN2C(=O)c3cccc4cccc(c34)C2=O)CC1 | 3.17 | > 100 | –
14 | O=C1C(Br)=Cc2cccc3cccc1c23 | < 0.2 | < 0.2 | –
15 | Cc1nc(SCC(=O)NC2CCCCC2)[nH]c(=O)c1C | < 0.2 | 0.54 | –
16 | O=C(CSc1nc2ccccc2c(=O)[nH]1)NCc1ccc(Cl)cc1 | 0.39 | 1.82 | –
17 | COC(=O)C1CC(=O)N(c2ccc(OCc3ccccc3Cl)cc2)C1 (centres undefined) | 0.83 | 8.4 | –
18 | c1ccc(/N=C2\N=C(Nc3ccccn3)c3ccccc32)nc1 | < 0.2 | < 0.2 | –
19 | COC(=O)c1cc(=O)n(-c2ccc(F)cc2)c(=Nc2ccc(F)cc2)s1 | < 0.2 | 4.51 | –
20 | Cc1ccc(NC(=O)C2C3/C=C\CCCCC32)cc1C (centres undefined) | 1.48 | 1.68 | –
21 | Oc1ccccc1/C=N/Nc1ccnc(SCc2ccccc2)n1 | – | – | 0.65% (inactive)
22 | CCOC(=O)COc1ccc(/C=C2\NC(=S)N(CC)C2=O)cc1 | 1.93 | 3.45 | –
23 | COC(=O)C(C)Oc1ccc(-c2nccc(-c3ccccn3)n2)cc1 (centres undefined) | 1.49 | 3.31 | –
24 | CCc1ccc(/C=C2/C(=O)N(C)C(=S)N2CC(=O)OC)s1 | 2.95 | 7.16 | –
25 | COC(=O)CCc1nc2c(C#N)c(-c3ccc(Cl)cc3)ccn2n1 | 0.76 | 7.91 | –
26 | CC(=NCc1ccc2c(c1)OCO2)C1=C(O)c2ccccc2C1=O | < 0.2 | 2.6 | –
27 | Cc1ccc2ccc3ccc(C)nc3c2n1 | < 0.2 | 0.92 | –
28 | Cc1cccc(/C=C/C(=O)c2ccc([N+](=O)[O-])o2)c1 | < 0.2 | < 0.2 | –
29 | CNc1nc(SCc2ccccc2Cl)nc2c1CCCC2 | < 0.2 | 2.32 | –
30 | CC(C)NC(=O)c1sc(=S)n2c1[nH]c(=O)c1ccc(C(=O)NCCc3ccc(Cl)cc3)cc12 | < 0.2 | 1.51 | –
